# Assay results taken from patent US11826347B2, “Anesthetic composition and method of anesthetizing the eye” (priority 2018, dated 2023).
# Counter-ions that a name gives are not always drawn.
# Legend:
# Dutch Belted rabbits [1] = test: Local anesthetic effect by Cochet-Bonnet esthesiometry; assay type: in vivo; conditions: topical ocular administration, two drops of 35 μL/eye
# Experimental: (§1) In the ocular tolerability study, a total of twelve male Dutch Belted rabbits divided randomly into four groups, were administered a placebo of phosphate buffered saline (PBS) or articaine at 4%, 8%, or 12% respectively. […] Ophthalmic examinations were performed on dose tolerability animals (Groups 1 through 4) predose and at 5, 10, and 20 minutes, and at 1, 2, 4, and 24 hours post the second eye drop administration in each eye using the modified Hackett-McDonald Scoring System. Following the modified Hackett-McDonald Scoring, local anesthetic effect was monitored in each eye by Cochet-Bonnet esthesiometry predose and at approximately 5, 10, and 20 minutes, and 1 hour following administration of the second eye drop in each eye. […] Topical ocular administration of articaine provided an anesthetic effect out to 20 minutes postdose with no notable tolerability issues.
# Dutch Belted rabbits [2] = assay type: in vivo; conditions: articaine 4%, 8%, or 12%, bilateral topical, two drops of 35 μL/eye, observed 24 hours
# Experimental: Two subparts of one study were conducted on Dutch Belted rabbits, namely, an ocular tolerability study followed by an ocular biodistribution study.
# as §1
# [3] = in vivo; cited from earlier work
# [4] = rabbit, in vivo
# Experimental: (§2) In the ocular biodistribution study, after a minimum of 72 hours following the completion of the ocular tolerability study, the twelve rabbits were re-assigned to Group 5 for the ocular biodistribution study. Group 6 was added and consisted of 3 naïve rabbits. Group 6 was included to evaluate the potential carryover effect of articaine over a 72 hour period post treatment. Group 5 and 6 animals were administered articaine at 8% and 12% w/v, respectively. Doses were administered via bilateral topical administration (two drops of 35 μL/eye). Group 5 animals were sacrificed at 10 minutes, and 1, 4 and 8 hours post treatment (N=3 at each time point). Group 6 rabbits were sacrificed at 24, 48 and 72 hours post treatment (N=1 at each time point). Just prior to sacrifice blood samples were collected from each animal. Animals were then euthanized and aqueous humor, conjunctivas (palpebral and bulbar), lens, cornea, vitreous humor, iris-ciliary body [ICB], optic nerve, lacrimal gland, retina, and choroid were collected.
# (§3) The objectives of this study were to determine the tolerability of placebo and Articaine HCl ophthalmic solutions at concentrations of 4, 8, and 12% (w/v) following topical eye drop administration, and to determine the ocular pharmacokinetics and biodistribution of articaine and articainic acid following topical eye drop administration of 8% Articaine HCl ophthalmic solution.
# in vivo = conditions: male, Dutch Belted, rabbit, topical or ocular
# Experimental: as §2, §3
# [5] = Ocular biodistribution / pharmacokinetics study
# Experimental: as §2, §3
Compound,"anesthetic effect, time postdose (Dutch Belted rabbits [1])",tolerability / treatment related adverse effects (Dutch Belted rabbits [2]),excreted as the metabolites [3],protein binding [3],renally excreted unchanged [3],"systemic exposure, as indicated by plasma AUC [4]",Tmax (in vivo),Cmax (in vivo; Plasma Cmax),"residual concentrations in ocular matrices ([5]; 12% articaine topical, 24, 48, and 72 hours postdose)",ratio of AUC0-last articainic acid over AUC0-last articaine ([5]; all other matrices),ratio of AUC0-last articainic acid over AUC0-last articaine ([5]; cornea),T1/2 (half-life) ([5]; plasma),ratio of AUC0-last articainic acid over AUC0-last articaine ([5]; plasma),"Plasma Cmax ([5]; plasma, 8% articaine topical, two drops of 35 μL/eye)"
"CCCNC(C)C(=O)Nc1c(C)csc1C(=O)OC (centres unmarked) [articaine, 4-methyl-3 (2-[propylamino]proprioamido)-2-thiophenecarboxylic acid, methyl ester hydrochloride]",20 min,well tolerated in all animals at concentrations up to 12% w/v,89%,highly protein bound,Five to ten,minimal,10 min,457 ng/mL,,,,,,
Articainic acid,,,,,,,,,Low residual concentrations,< 0.7,approximately 2,approximately 1.5 hours,approximately 2,217 ng/mL
